Experimental data published in patent publication US12509444B2, “Compounds and methods for CD73 modulation and indications therefor” (Plexxikon Inc., priority 2019, dated 2025).

What was measured:
[1] = target: T1, human CD73 (Homo sapiens, UniProt P21589); experiment: Inhibitor activity against CD73 in cell based assay (CD73 expressing CHO-K1 cells); conditions: CHO-K1 cells expressing human CD73, 150 μM AMP, 4 hours of incubation; read-out: CHO-K1 CELL VARIANT: CD73 IC50
T1 construct: expressed in transfected cells
T1 sequence (P21589 27-549): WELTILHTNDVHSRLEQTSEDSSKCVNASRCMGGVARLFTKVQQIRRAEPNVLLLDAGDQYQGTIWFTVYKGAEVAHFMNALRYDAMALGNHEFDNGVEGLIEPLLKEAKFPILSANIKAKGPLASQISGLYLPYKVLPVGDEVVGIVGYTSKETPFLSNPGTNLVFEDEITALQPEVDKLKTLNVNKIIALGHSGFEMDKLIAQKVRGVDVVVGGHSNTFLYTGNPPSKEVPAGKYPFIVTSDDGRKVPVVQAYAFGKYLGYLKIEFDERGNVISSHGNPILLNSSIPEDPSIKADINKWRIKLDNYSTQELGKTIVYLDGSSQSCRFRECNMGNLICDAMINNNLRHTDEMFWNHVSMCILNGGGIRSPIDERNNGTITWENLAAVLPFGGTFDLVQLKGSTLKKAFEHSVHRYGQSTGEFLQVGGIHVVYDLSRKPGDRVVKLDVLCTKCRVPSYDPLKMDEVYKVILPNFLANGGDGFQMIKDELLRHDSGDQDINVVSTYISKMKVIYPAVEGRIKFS
Description: Determine Inhibitor Activity Against CD73 in Cell Based Assay
CD73 expressing CHO-K1 cell clones were generated upon stable transfection of a plasmid expressing human CD73 under the control of CMV promoter. Cells were selected in Ham's F-12K (Kaighn's) media supplemented with 10% fetal bovine serum and 1 mg/ml G418 at 37° C. in a humidified incubator supplied with 5% CO2. The assays were performed as follows. Cells were seeded in a 96 well plate in 50 μL of culture media at a density of 1×10^4 per well. Compound at a maximal concentration of 5 mM was serially diluted 1:3 in DMSO for a total of 8 point titration. A 2 μL aliquot of each dilution point was added to 248 μL culture media and 25 µL was added to each well, providing 10 μM compound at the maximum concentration point. AMP was diluted in culture media and 25 μL was added to each well with a final concentration of 150 μM. 4 wells containing 0.2% DMSO treated cells and AMP served as high controls and 4 wells containing media only with 0.2% DMSO and AMP served as low controls. After 4 hours of incubation, 20 μL of the supernatant was transferred to a 384 well plate. AMP level in supernatant was measured indirectly by adding 5 μL of CellTiter-Glo® 2.0 reagent and 5 μL of ATP with a final concentration of 1 μM. Following incubation of plate at room temperature for 30 minutes, luminescent signal was read on a Tecan plate reader. The percentage inhibition at individual concentrations relative to high and low controls was calculated. The data were analyzed by using nonlinear regression to generate IC50 values.

[2] = target: T2, Human CD73 (amino acid residues 27-549) (Homo sapiens, UniProt P21589); experiment: CD73 enzymatic assay (luciferase-based indirect assay, CellTiter-Glo); assay type: biochemical; conditions: 0.4 nM CD73, 150 μM AMP, 1 hour at room temperature
T2 construct: Human CD73 (amino acid residues 27-549); His tag (N); made in house; host or cells: E. coli
T2 sequence (P21589 27-549): T1 sequence (P21589 27-549)
How it was run: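 Residual AMP inhibits luciferase, so luminescence reports CD73 turnover; read with CellTiter-Glo 2.0 plus 1 μM final ATP, 30 min. Reaction used 0.4 nM N-His CD73 (27-549, E. coli), 150 μM AMP, HEPES pH 7.4 with Tween 20, 1 h at room temperature. IC50 fitted by nonlinear regression.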

Row | SMILES | IC50 [1] [µM] | IC50 [2] [µM]
1 | O=C(NC1CCC1)N[C@@H]1CCN(c2cn[nH]c(=O)c2Cl)C1 [P-0085, (R)-1-(1-(5-chloro-6-oxo-1,6-dihydropyridazin-4-yl)pyrrolidin-3-yl)-3-cyclobutylurea] | 10 to 100 | 0.001 to 10
2 | O=C(NC1CCS(=O)(=O)CC1)N[C@@H]1CCN(c2cn[nH]c(=O)c2Cl)C1 [P-0086, (R)-1-(1-(5-chloro-6-oxo-1,6-dihydropyridazin-4-yl)pyrrolidin-3-yl)-3-(1,1-dioxidotetrahydro-2H-thiopyran-4-yl)urea] | 10 to 100 | 0.001 to 10
3 | O=C(CO)NC1CCC(NC(=O)N[C@@H]2CCN(c3cn[nH]c(=O)c3Cl)C2)CC1 (stereo partly drawn) [P-0088, (R)-N-(4-(3-(1-(5-chloro-6-oxo-1,6-dihydropyridazin-4-yl)pyrrolidin-3-yl)ureido)cyclohexyl)-2-hydroxyacetamide] | 10 to 100 | 0.001 to 10
4 | O=C(Nc1ccc(Cl)cc1)O[C@@H]1CCN(c2cn[nH]c(=O)c2Cl)C1 [P-0094, (R)-1-(5-chloro-6-oxo-1,6-dihydropyridazin-4-yl)pyrrolidin-3-yl (4-chlorophenyl)carbamate] | 10 to 100 | 0.001 to 10
5 | CN(C(=O)O[C@@H]1CCN(c2cn[nH]c(=O)c2Cl)C1)C1CCCCC1 [P-0099, (R)-1-(5-chloro-6-oxo-1,6-dihydropyridazin-4-yl)pyrrolidin-3-yl cyclohexyl(methyl)carbamate] | 10 to 100 | 0.001 to 10
6 | O=C(NCc1ccccc1)O[C@@H]1CCN(c2cn[nH]c(=O)c2Cl)C1 [P-0100, (R)-1-(5-chloro-6-oxo-1,6-dihydropyridazin-4-yl)pyrrolidin-3-yl benzylcarbamate] | 10 to 100 | 0.001 to 10
7 | O=C(Nc1cccc(Cl)c1)O[C@@H]1CCN(c2cn[nH]c(=O)c2Cl)C1 [P-0101, (R)-1-(5-chloro-6-oxo-1,6-dihydropyridazin-4-yl)pyrrolidin-3-yl (3-chlorophenyl)carbamate] | 0.001 to 10 | 0.001 to 10
8 | CCOC(=O)N1CCC(NC(=O)O[C@@H]2CCN(c3cn[nH]c(=O)c3Cl)C2)CC1 [P-0102, ethyl (R)-4-((((1-(5-chloro-6-oxo-1,6-dihydropyridazin-4-yl)pyrrolidin-3-yl)oxy)carbonyl)amino) piperidine-1-carboxylate] | 0.001 to 10 | 0.001 to 10
9 | O=C(N[C@@H]1CCN(c2cn[nH]c(=O)c2Cl)C1)N[C@@H]1CCN(c2cn[nH]c(=O)c2Cl)C1 [P-0103, 1,3-bis((R)-1-(5-chloro-6-oxo-1,6-dihydropyridazin-4-yl)pyrrolidin-3-yl)urea] | 10 to 100 | 0.001 to 10
10 | O=C(NC1CC(F)(F)C1)O[C@@H]1CCN(c2cn[nH]c(=O)c2Cl)C1 [P-0104, (R)-1-(5-chloro-6-oxo-1,6-dihydropyridazin-4-yl)pyrrolidin-3-yl (3,3-difluorocyclobutyl)carbamate] | 0.001 to 10 | 0.001 to 10
11 | O=C(NC1CCN(C(=O)CO)CC1)O[C@@H]1CCN(c2cn[nH]c(=O)c2Cl)C1 [P-0105, (R)-1-(5-chloro-6-oxo-1,6-dihydropyridazin-4-yl)pyrrolidin-3-yl (1-(2-hydroxyacetyl)piperidin-4-yl)carbamate] | 0.001 to 10 | 0.001 to 10
12 | O=C(NC1CCC(F)(F)CC1)O[C@@H]1CCN(c2cn[nH]c(=O)c2Cl)C1 [P-0106, (R)-1-(5-chloro-6-oxo-1,6-dihydropyridazin-4-yl)pyrrolidin-3-yl (4,4-difluorocyclohexyl)carbamate] | 0.001 to 10 | 0.001 to 10
13 | O=C(N[C@H]1CCOC1)O[C@@H]1CCN(c2cn[nH]c(=O)c2Cl)C1 [P-0107, (R)-1-(5-chloro-6-oxo-1,6-dihydropyridazin-4-yl)pyrrolidin-3-yl ((S)-tetrahydrofuran-3-yl)carbamate] | 0.001 to 10 | 0.001 to 10
14 | O=C(N[C@@H]1CCOC1)O[C@@H]1CCN(c2cn[nH]c(=O)c2Cl)C1 [P-0108, (R)-1-(5-chloro-6-oxo-1,6-dihydropyridazin-4-yl)pyrrolidin-3-yl ((R)-tetrahydrofuran-3-yl)carbamate] | 0.001 to 10 | 0.001 to 10
15 | C[C@H]1CC[C@H](NC(=O)O[C@@H]2CCN(c3cn[nH]c(=O)c3Cl)C2)CC1 [P-0109, (R)-1-(5-chloro-6-oxo-1,6-dihydropyridazin-4-yl)pyrrolidin-3-yl ((1r,4R)-4-methylcyclohexyl)carbamate] | 0.001 to 10 | 0.001 to 10
16 | C[C@H]1CC[C@@H](NC(=O)O[C@@H]2CCN(c3cn[nH]c(=O)c3Cl)C2)CC1 [P-0110, (R)-1-(5-chloro-6-oxo-1,6-dihydropyridazin-4-yl)pyrrolidin-3-yl ((1s,4S)-4-methylcyclohexyl)carbamate] | 0.001 to 10 | 0.001 to 10
17 | O=C(NC1C2CC3CC(C2)CC1C3)O[C@@H]1CCN(c2cn[nH]c(=O)c2Cl)C1 (stereo partly drawn) [P-0111, (R)-1-(5-chloro-6-oxo-1,6-dihydropyridazin-4-yl)pyrrolidin-3-yl adamantan-2-ylcarbamate] | 0.001 to 10 | 0.001 to 10

More lines, now with the values ahead:

Row | IC50 [1] [µM] | IC50 [2] [µM] | SMILES
18 | 0.001 to 10 | 0.001 to 10 | CC(C)(C)OC(=O)N1CCC(NC(=O)O[C@@H]2CCN(c3cn[nH]c(=O)c3Cl)C2)CC1 [P-0089, tert-butyl (R)-4-((((1-(5-chloro-6-oxo-1,6-dihydropyridazin-4-yl)pyrrolidin-3-yl)oxy)carbonyl)amino) piperidine-1-carboxylate]
19 | 0.001 to 10 | 0.001 to 10 | CC(=O)N1CCC(NC(=O)O[C@@H]2CCN(c3cn[nH]c(=O)c3Cl)C2)CC1 [P-0090, (R)-1-(5-chloro-6-oxo-1,6-dihydropyridazin-4-yl)pyrrolidin-3-yl (1-acetylpiperidin-4-yl)carbamate]
20 | 0.001 to 10 | 0.001 to 10 | CS(=O)(=O)NC1CCC(NC(=O)N[C@@H]2CCN(c3cn[nH]c(=O)c3Cl)C2)CC1 (stereo partly drawn) [P-0091, (R)-N-(4-(3-(1-(5-chloro-6-oxo-1,6-dihydropyridazin-4-yl)pyrrolidin-3-yl)ureido)cyclohexyl) methanesulfonamide]
21 | 0.001 to 10 | 0.001 to 10 | O=C(NC1CC1)O[C@@H]1CCN(c2cn[nH]c(=O)c2Cl)C1 [P-0092, (R)-1-(5-chloro-6-oxo-1,6-dihydropyridazin-4-yl)pyrrolidin-3-yl cyclopropylcarbamate]
22 | 0.001 to 10 | 0.001 to 10 | O=C(Nc1ccccc1)O[C@@H]1CCN(c2cn[nH]c(=O)c2Cl)C1 [P-0093, (R)-1-(5-chloro-6-oxo-1,6-dihydropyridazin-4-yl)pyrrolidin-3-yl phenylcarbamate]
23 | 0.001 to 10 | 0.001 to 10 | O=C(NCC1CCCC1)O[C@@H]1CCN(c2cn[nH]c(=O)c2Cl)C1 [P-0095, (R)-1-(5-chloro-6-oxo-1,6-dihydropyridazin-4-yl)pyrrolidin-3-yl (cyclopentylmethyl)carbamate]
24 | 0.001 to 10 | 0.001 to 10 | O=C(NCC(F)(F)F)O[C@@H]1CCN(c2cn[nH]c(=O)c2Cl)C1 [P-0096, (R)-1-(5-chloro-6-oxo-1,6-dihydropyridazin-4-yl)pyrrolidin-3-yl (2,2,2-trifluoroethyl)carbamate]
25 | 0.001 to 10 | 0.001 to 10 | O=C(NC1CCOCC1)O[C@@H]1CCN(c2cn[nH]c(=O)c2Cl)C1 [P-0097, (R)-1-(5-chloro-6-oxo-1,6-dihydropyridazin-4-yl)pyrrolidin-3-yl (tetrahydro-2H-pyran-4-yl)carbamate]
